Assay [1] concerns the target T1, Type-1 angiotensin II receptor (Homo sapiens, UniProt P30556).
T1 sequence (P30556 whole entry): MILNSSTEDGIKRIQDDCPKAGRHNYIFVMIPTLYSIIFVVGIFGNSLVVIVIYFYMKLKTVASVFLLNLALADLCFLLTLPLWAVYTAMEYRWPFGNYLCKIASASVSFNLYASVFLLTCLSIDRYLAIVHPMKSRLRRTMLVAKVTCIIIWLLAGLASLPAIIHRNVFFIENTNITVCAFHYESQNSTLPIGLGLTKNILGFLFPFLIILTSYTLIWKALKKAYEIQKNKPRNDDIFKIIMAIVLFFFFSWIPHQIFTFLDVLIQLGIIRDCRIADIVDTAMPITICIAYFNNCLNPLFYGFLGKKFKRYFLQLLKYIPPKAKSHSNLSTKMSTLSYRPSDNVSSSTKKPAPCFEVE
Kind of assay: Binding affinity for Angiotensin II receptor, type 1.

For assay [2], the target named is T2, Type-2 angiotensin II receptor (Homo sapiens, UniProt P50052).
T2 sequence (P50052 whole entry): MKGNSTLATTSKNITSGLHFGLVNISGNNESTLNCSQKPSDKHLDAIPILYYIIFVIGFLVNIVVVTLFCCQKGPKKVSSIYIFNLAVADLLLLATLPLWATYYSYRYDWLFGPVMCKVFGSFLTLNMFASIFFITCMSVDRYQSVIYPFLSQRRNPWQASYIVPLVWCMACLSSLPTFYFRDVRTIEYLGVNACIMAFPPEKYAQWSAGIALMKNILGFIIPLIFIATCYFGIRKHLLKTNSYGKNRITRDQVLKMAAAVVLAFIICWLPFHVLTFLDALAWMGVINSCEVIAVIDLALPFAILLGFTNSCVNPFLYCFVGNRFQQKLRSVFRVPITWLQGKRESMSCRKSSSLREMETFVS
Kind of assay: Binding affinity for angiotensin II AT-2 receptor.

As a reminder, the IC50 is the concentration at which inhibition is half-maximal. Lower therefore signals higher potency. Turning to `CCCc1nc(CC)c(C(=O)OCc2ccc(C(=O)c3ccccc3)cc2)n1Cc1ccc(-c2ccccc2-c2nn[nH]n2)cc1`, the results for the IC50 in assay [1] and in assay [2] were 9 nM and 2000 nM, respectively.

For `CCCc1nc(CC)c(C(=O)OCc2ccccc2NC(=O)c2ccccc2)n1Cc1ccc(-c2ccccc2S(=O)(=O)NC(=O)OCCC(C)C)cc1F`, the IC50 in assay [1] was found to be 0.3 nM; in assay [2], 1 nM.

For `CCCc1nc(CC)c(C(=O)OCCCCOc2ccccc2)n1Cc1ccc(-c2ccccc2S(=O)(=O)NC(=O)OCCC(C)C)cc1F`, the results for the IC50 in assay [1] and in assay [2] were 0.2 nM and 2 nM, respectively.

In the case of `CCCc1nc(CC)c(C(=O)OCCN(C(=O)OCCC(C)C)c2ccccc2)n1Cc1ccc(-c2ccccc2S(=O)(=O)NC(=O)OCCC(C)C)cc1F`, the 50% inhibitory concentration (IC50) in assay [1] came out at 0.2 nM; in assay [2] it was 4 nM.

For `CCCc1nc(CC)c(C(=O)OCc2ccccc2C(=O)c2ccccc2)n1Cc1ccc(-c2ccccc2S(=O)(=O)NC(=O)OC)cc1`, the half-inhibitory concentration (IC50) turned out to be 0.6 nM in assay [1] and 10 nM in assay [2].

On to `CCCc1nc(CC)c(C(=O)OCCN(C(=O)c2ccccc2)c2ccccc2)n1Cc1ccc(-c2ccccc2S(=O)(=O)NC(=O)OCCC(C)C)cc1F`, for which the IC50 came to 0.1 nM in assay [1] and 2 nM in assay [2].

Regarding `CCCc1nc(CC)c(C(=O)OCCC(=O)Nc2ccccc2)n1Cc1ccc(-c2ccccc2S(=O)(=O)NC(=O)OCCC(C)C)cc1F`, the half-inhibitory concentration (IC50) came to 0.1 nM in assay [1] and 3 nM in assay [2].

As for `CCCCN(Cc1ccccc1)C(=O)c1ccc(COC(=O)c2c(CC)nc(CCC)n2Cc2ccc(-c3ccccc3-c3nn[nH]n3)cc2)cc1`, the IC50 in assay [1] stood at 8 nM; in assay [2] it was 200 nM.

`CCCc1nc(CC)c(C(=O)OCc2cccc(C(=O)N(c3ccccc3)c3ccccc3)c2)n1Cc1ccc(-c2ccccc2-c2nn[nH]n2)cc1`: the half-inhibitory concentration (IC50) came out at 30 nM in assay [1] and 300 nM in assay [2].

As for `CCCCN(CCCC)C(=O)CCCOC(=O)c1c(CC)nc(CCC)n1Cc1ccc(-c2ccccc2-c2nnn[nH]2)cc1`, the figures for the concentration for half-maximal inhibition (IC50) in assay [1] and in assay [2] were 30 nM and 500 nM, respectively.

For the compound `CCCc1nc(CC)c(C(=O)NCCCOc2ccccc2)n1Cc1ccc(-c2ccccc2S(=O)(=O)NC(=O)OCCC(C)C)cc1F`, the results for the concentration for half-maximal inhibition (IC50) in assay [1] and in assay [2] were 0.3 nM and 9 nM, respectively.

As for `CCCOC(=O)NS(=O)(=O)c1ccccc1-c1ccc(Cn2c(CCC)nc(CC)c2C(=O)OCc2ccccc2-c2cncnc2)c(F)c1`, the concentration for half-maximal inhibition (IC50) came out at 0.8 nM in assay [1] and 10 nM in assay [2].

For `CCCCN(Cc1ccccc1)C(=O)CCCOC(=O)c1c(CC)nc(CCC)n1Cc1ccc(-c2ccccc2-c2nn[nH]n2)cc1`, the 50% inhibitory concentration (IC50) in assay [1] worked out at 10 nM; in assay [2], 300 nM.

Regarding `CCCc1nc(CC)c(C(=O)OCc2ccccc2C(=O)c2ccccc2)n1Cc1ccc(-c2ccccc2S(=O)(=O)NC(=O)OCCC(C)C)cc1`, the figures for the IC50 in assay [1] and in assay [2] were 0.35 nM and 1.9 nM, respectively.

For the compound `CCCc1nc(CC)c(C(=O)OCc2ccc(-c3ccccc3)cc2)n1Cc1ccc(-c2ccccc2-c2nnn[nH]2)cc1`, the half-maximal inhibitory concentration (IC50) in assay [1] is 3 nM; in assay [2] it was 3000 nM.

`CCCc1nc(CC)c(C(=O)OCc2ccccc2-c2ccccc2)n1Cc1ccc(-c2ccccc2-c2nnn[nH]2)cc1`: the IC50 came out at 3 nM in assay [1] and 2000 nM in assay [2].

`CCCOC(=O)NS(=O)(=O)c1ccccc1-c1ccc(Cn2c(CCC)nc(CC)c2C(=O)OCc2ccccc2-c2cccs2)c(F)c1`: the half-inhibitory concentration (IC50) in assay [1] was 0.5 nM; in assay [2] it was 3 nM.

Consider `CCCCCOC(=O)NS(=O)(=O)c1ccccc1-c1ccc(Cn2c(CCC)nc(CC)c2C(=O)OCCC(=O)Nc2ccccc2)c(F)c1`, for which the values for the IC50 in assay [1] and in assay [2] were 0.1 nM and 1 nM, respectively.

For the compound `CCCc1nc(CC)c(C(=O)NCc2ccccc2Sc2ccccc2)n1Cc1ccc(-c2ccccc2S(=O)(=O)NC(=O)OCCC(C)C)cc1F`, the half-maximal inhibitory concentration (IC50) came to 0.4 nM in assay [1] and 3 nM in assay [2].

As to `CCCc1nc(CC)c(C(=O)OCc2ccccc2OCCC(C)C)n1Cc1ccc(-c2ccccc2S(=O)(=O)NC(=O)OCCC(C)C)cc1F`, the IC50 in assay [1] is 3 nM; in assay [2] it was 10 nM.

On to `CCCc1nc(CC)c(C(=O)OCCCS(=O)(=O)c2ccccc2)n1Cc1ccc(-c2ccccc2S(=O)(=O)NC(=O)OCCC(C)C)cc1F`, for which the values for the 50% inhibitory concentration (IC50) in assay [1] and in assay [2] were 0.2 nM and 2 nM, respectively.

For `CCCc1nc(CC)c(C(=O)OCc2ccc(C(=O)N(c3ccccc3)c3ccccc3)cc2)n1Cc1ccc(-c2ccccc2-c2nnn[nH]2)cc1`, the half-inhibitory concentration (IC50) came out at 20 nM in assay [1] and 200 nM in assay [2].

With `CCCCN(Cc1ccccc1)C(=O)C#CCOC(=O)c1c(CC)nc(CCC)n1Cc1ccc(-c2ccccc2-c2nnn[nH]2)cc1`, the half-maximal inhibitory concentration (IC50) is 10 nM in assay [1] and 400 nM in assay [2].

In the case of `CCCc1nc(CC)c(C(=O)OCc2ccccc2C(=O)C(C)(C)C)n1Cc1ccc(-c2ccccc2S(=O)(=O)NC(=O)OCCC(C)C)cc1F`, the IC50 in assay [1] turned out to be 0.3 nM; in assay [2] it was 3 nM.

For the compound `CCCOC(=O)NS(=O)(=O)c1ccccc1-c1ccc(Cn2c(CCC)nc(CC)c2C(=O)OCc2cccc(C(=O)c3ccccc3)c2)c(F)c1`, the IC50 in assay [1] stood at 0.3 nM; in assay [2], 10 nM.

Regarding `CCCc1nc(CC)c(C(=O)OCCC[S+]([O-])c2ccccc2)n1Cc1ccc(-c2ccccc2S(=O)(=O)NC(=O)OCCC(C)C)cc1F` (stereo not given), the IC50 was 0.2 nM in assay [1] and 1 nM in assay [2].

Regarding `CCCc1nc(CC)c(C(=O)NCc2ccccc2[S+]([O-])c2ccccc2)n1Cc1ccc(-c2ccccc2S(=O)(=O)NC(=O)OCCC(C)C)cc1F` (stereo not given), the 50% inhibitory concentration (IC50) came to 0.6 nM in assay [1] and 5 nM in assay [2].

Regarding `CCCc1nc(CC)c(C(=O)OCCCC(=O)Nc2ccccc2)n1Cc1ccc(-c2ccccc2S(=O)(=O)NC(=O)OCCC(C)C)cc1F`, the results for the IC50 in assay [1] and in assay [2] were 0.2 nM and 5 nM, respectively.

As for `CCCCOC(=O)NS(=O)(=O)c1ccccc1-c1ccc(Cn2c(CCC)nc(CC)c2C(=O)NCCCOc2ccccc2)c(F)c1`, the concentration for half-maximal inhibition (IC50) in assay [1] is 0.4 nM; in assay [2] it was 20 nM.

On to `CCCc1nc(CC)c(C(=O)OCc2ccccc2C(=O)c2ccccc2)n1Cc1ccc(-c2ccccc2S(=O)(=O)NC(=O)OCCc2ccccc2)cc1`, for which the IC50 in assay [1] turned out to be 0.74 nM; in assay [2], 2.1 nM.

As for `CCCc1nc(CC)c(C(=O)OCc2ccccc2C(=O)c2ccccc2)n1Cc1ccc(-c2ccccc2-c2nnn[nH]2)cc1`, the IC50 in assay [1] is 2 nM; in assay [2], 300 nM.

For `CCCc1nc(CC)c(C(=O)OCc2ccccc2OC)n1Cc1ccc(-c2ccccc2S(=O)(=O)NC(=O)OCCC(C)C)cc1F`, the values for the IC50 in assay [1] and in assay [2] were 0.1 nM and 1 nM, respectively.

For `CCCc1nc(CC)c(C(=O)OCc2ccccc2-c2ccccc2)n1Cc1ccc(-c2ccccc2S(=O)(=O)NC(=O)OCCC(C)C)cc1F`, the concentration for half-maximal inhibition (IC50) in assay [1] worked out at 3 nM; in assay [2] it was 9 nM.

On to `CCCc1nc(CC)c(C(=O)OCCCN2C(=O)c3ccccc3C2=O)n1Cc1ccc(-c2ccccc2S(=O)(=O)NC(=O)OCCC(C)C)cc1F`, for which the half-inhibitory concentration (IC50) in assay [1] was found to be 0.1 nM; in assay [2] it was 3 nM.

As to `CCCCN(Cc1ccccc1)C(=O)CCCOC(=O)c1c(CC)nc(CCC)n1Cc1ccc(-c2ccccc2S(=O)(=O)NC(=O)OCCC(C)C)cc1F`, the figures for the half-inhibitory concentration (IC50) in assay [1] and in assay [2] were 0.2 nM and 5 nM, respectively.

As for `CCCc1nc(CC)c(C(=O)OCC(=O)c2ccccc2)n1Cc1ccc(-c2ccccc2S(=O)(=O)NC(=O)OCCC(C)C)cc1F`, the results for the IC50 in assay [1] and in assay [2] were 0.1 nM and 2 nM, respectively.

As to `CCCc1nc(CC)c(C(=O)OCc2ccccc2C(=O)c2ccccc2)n1Cc1ccc(-c2ccccc2S(=O)(=O)NC(=O)OCCc2ccccc2)cc1F`, the values for the half-maximal inhibitory concentration (IC50) in assay [1] and in assay [2] were 0.57 nM and 0.69 nM, respectively.

Take `CCCc1nc(CC)c(C(=O)OCc2cccc(C(=O)c3ccccc3)c2)n1Cc1ccc(-c2ccccc2S(=O)(=O)NC(=O)OCCC(C)C)cc1F`: the figures for the IC50 in assay [1] and in assay [2] were 0.6 nM and 0.9 nM, respectively.

In the case of `CCCOC(=O)NS(=O)(=O)c1ccccc1-c1ccc(Cn2c(CCC)nc(CC)c2C(=O)OCc2ccccc2-c2ccsc2)c(F)c1`, the half-inhibitory concentration (IC50) in assay [1] is 0.3 nM; in assay [2], 20 nM.

As to `CCCCOC(=O)NS(=O)(=O)c1ccccc1-c1ccc(Cn2c(CCC)nc(CC)c2C(=O)OCc2ccccc2Oc2ccccc2)c(F)c1`, the figures for the IC50 in assay [1] and in assay [2] were 0.6 nM and 3 nM, respectively.

Turning to `CCCc1nc(CC)c(C(=O)OCc2cccc(C(=O)c3ccccc3)c2)n1Cc1ccc(-c2ccccc2-c2nn[nH]n2)cc1`, the IC50 in assay [1] is 9 nM; in assay [2] it was 1000 nM.

`CCCc1nc(CC)c(C(=O)OCc2ccccc2C(=O)c2ccccc2)n1Cc1ccc(-c2ccccc2S(=O)(=O)NC(=O)OCC(C)C)cc1F`: the IC50 was determined as 0.5 nM in assay [1] and 1 nM in assay [2].

Consider `CCCc1nc(CC)c(C(=O)OCC#CC(=O)N(c2ccccc2)c2ccccc2)n1Cc1ccc(-c2ccccc2-c2nn[nH]n2)cc1`, for which the IC50 turned out to be 40 nM in assay [1] and 600 nM in assay [2].

Consider `CCCc1nc(CC)c(C(=O)OCc2ccccc2-c2ccsc2)n1Cc1ccc(-c2ccccc2S(=O)(=O)NC(=O)OCCC(C)C)cc1F`, for which the IC50 came out at 0.6 nM in assay [1] and 20 nM in assay [2].

As for `CCCc1nc(CC)c(C(=O)OC(C(=O)c2ccccc2)c2ccccc2)n1Cc1ccc(-c2ccccc2S(=O)(=O)NC(=O)OCCC(C)C)cc1F` (stereo not given), the half-inhibitory concentration (IC50) in assay [1] is 0.8 nM; in assay [2] it was 3 nM.

Source of the values: ChEMBL document CHEMBL1150518, “Balanced angiotensin II receptor antagonists. III. The effects of substitution at the imidazole 5-position” (Bioorg Med Chem Lett, 1994).
